Experiments:
mice = conditions: cited from earlier work
[1] = cited from earlier work
humans = experiment: Case reports: ophthalmic drops instilled into the conjunctival sac for night vision and night blindness; conditions: micro doses in the ophthalmic drops

| Structure (SMILES) | neural impulse generation in the retina in response to amber light (mice; in the presence of chlorin e6) | neural impulse generation in the retina in response to red and blue light (mice; in the presence of chlorin e6) | electroretinographic amplitudes in response to red and blue light (mice; mice administered chlorin e6) | red fluorescence (>640 nm) of eyes versus control mice ([1]; intravenously injected chlorin e6) | fluorescence emission of removed eyes (uptake by the retina) ([1]; mice, 2.00 mg per kilogram body weight intravenously, one hour after administration) | persistence of deposits in the photoreceptors ([1]; mice, intravenous chlorin e6) | hallucinogenic or other ill effect (humans) |
| --- | --- | --- | --- | --- | --- | --- | --- |
| C=Cc1c(C)c2cc3nc(c(CC(=O)O)c4[nH]c(cc5nc(cc1[nH]2)C(C)=C5CC)c(C)c4C(=O)O)[C@@H](CCC(=O)O)[C@@H]3C (relative stereo) [chlorin e6] | not amber light | almost two-fold increase | two-fold greater | three times more red fluorescence | strong emission band of red florescence centered at 675 nm | remained in the photoreceptors for three hours post administration |  |
| CNC1(c2ccccc2Cl)CCCCC1=O (stereo not shown) [ketamine] |  |  |  |  |  |  | no hallucinogenic or other ill effect |

Source: patent US20120157377A1, “METHODS TO ENHANCE NIGHT VISION AND TREATMENT OF NIGHT BLINDNESS” (priority 2012, published 2012)
